Reference: US10722516B2, “Use of landiolol hydrochloride in the long-term treatment of tachyarrhythmias” (AOP Orphan Pharmaceuticals AG, priority 2013, dated 2020)
Structures can show the parent of a compound that is named as a salt.

Legend:
healthy volunteers [1] = assay: 24 h long-term infusion study: local tolerability and safety; type: in vivo, human
Procedure: (§1) A single centre prospective, randomized, double blind, crossover, pharmacokinetic, safety and tolerability study to compare long-term infusion administration of AOP LDLL600 against esmolol in healthy volunteers was performed.
(§2) Landiolol hydrochloride lyophilized (LDLL600) comprises 600 mg landiolol hydrochloride, 600 mg mannitol, pH 6.5. The primary packing of LDLL600 is 50 ml vial, the reconstitution volume is 50 ml and the final product concentration is 12 mg/mL landiolol HCl.
(§3) 12 subjects were administered AOP LDLL600 or Esmolol (Brevibloc, 2500 mg/250 ml) in 1:1 ratio in double-blind, randomized, cross-over setting. PK, systemic cardiovascular and local tolerability and safety of the 24 h-long term infusions of three dose levels of both IMPs during each treatment period were assessed.
(§4) Landiolol was infused over 24 h in a dose of 10 μg/KG/min (2 hrs), followed by 20 μg/KG/min (2 hrs), followed by 40 μg/KG/min for 20 hrs.
(§5) Dosing algorithm was body weight divided by 20, 10 and 5 in ml/h giving 10, 20 and 40 μg/KG/min at a concentration of 12 mg/ml. No severe adverse drug reactions, mild local reactions, 1 severe local reaction (Esmolol High Dose).
(§6) Landiolol was infused over 24 h in a dose of 10, 20 and 40 μg/KG/min, i.e. 10 μg/KG/min landiolol were administered for 2 hrs, followed by 2 hrs administration of 20 μg/KG/min and further followed by 20 hrs administration of 40 μg/KG/min.

healthy volunteers [2] = assay: 24 h long-term infusion study, AOP LDLL600 against esmolol: heart rate; type: in vivo, human
Procedure: as §1, §2, §3, §4, §5, §6
Post-infusion follow up measurements were performed immediately after 20 hrs administration study, i.e. 2, 4 min etc. after stop of landiolol administration.

[3] = 24 h infusion, three dose levels
[4] = FU Predose (end of 20 h HD, infusion stop)
[5] = FU post-infusion, 20 h 2 min (2 min after infusion stop)
[6] = FU post-infusion, 20 h 4 min (4 min after infusion stop)
[7] = FU post-infusion, 20 h 6 min (6 min after infusion stop)
[8] = FU post-infusion, 20 h 8 min (8 min after infusion stop)
[9] = FU post-infusion, 20 h 12 min (12 min after infusion stop)
[10] = FU post-infusion, 20 h 16 min (16 min after infusion stop)
[11] = FU post-infusion, 20 h 20 min (20 min after infusion stop)
[12] = FU post-infusion, 20 h 30 min (30 min after infusion stop)
[13] = FU post-infusion, 21 h (1 h after infusion stop)
[14] = FU post-infusion, 22 h (2 h after infusion stop)
[15] = FU post-infusion, 24 h (4 h after infusion stop)
[16] = FU post-infusion, 26 h (6 h after infusion stop)
[17] = HD infusion (landiolol 40, esmolol 200 μg/kg/min, after LD and MD), 2 min
[18] = HD infusion (landiolol 40, esmolol 200 μg/kg/min, after LD and MD), 3 min
[19] = HD infusion (landiolol 40, esmolol 200 μg/kg/min, after LD and MD), 4 min
[20] = HD infusion (landiolol 40, esmolol 200 μg/kg/min, after LD and MD), 6 min
[21] = HD infusion (landiolol 40, esmolol 200 μg/kg/min, after LD and MD), 8 min
[22] = HD infusion (landiolol 40, esmolol 200 μg/kg/min, after LD and MD), 12 min
[23] = HD infusion (landiolol 40, esmolol 200 μg/kg/min, after LD and MD), 16 min
[24] = HD infusion (landiolol 40, esmolol 200 μg/kg/min, after LD and MD), 20 min
[25] = HD infusion (landiolol 40, esmolol 200 μg/kg/min, after LD and MD), 30 min
[26] = HD infusion (landiolol 40, esmolol 200 μg/kg/min, after LD and MD), 60 min
[27] = HD infusion (landiolol 40, esmolol 200 μg/kg/min, after LD and MD), 90 min
[28] = HD infusion (landiolol 40, esmolol 200 μg/kg/min, after LD and MD), 2 h
[29] = HD infusion (landiolol 40, esmolol 200 μg/kg/min, after LD and MD), 4 h
[30] = HD infusion (landiolol 40, esmolol 200 μg/kg/min, after LD and MD), 8 h
[31] = HD infusion (landiolol 40, esmolol 200 μg/kg/min, after LD and MD), 12 h
[32] = HD infusion (landiolol 40, esmolol 200 μg/kg/min, after LD and MD), 16 h
[33] = HD infusion (landiolol 40, esmolol 200 μg/kg/min, after LD and MD), 20 h (end)

CC1(C)OC[C@@H](COC(=O)CCc2ccc(OC[C@@H](O)CNCCNC(=O)N3CCOCC3)cc2)O1 [Landiolol, (−)-[(S)-2,2-dimethyl-1,3-dioxolan-4-yl]methyl 3-[4-[(S)-2-hydroxy-3-(2-morpholinocarbonylamino)ethylamino]propoxy]phenylpropionate monohydrochloride]
local tolerability compared to Esmolol (healthy volunteers [1]; 24 h infusion): clearly better | local reactions (percent of subjects) (healthy volunteers [1]; [3]): 16.7% | local reactions (subjects/total) (healthy volunteers [1]; [3]): 2/12 | local venous skin irritations or inflammatory reactions at the site of injection (healthy volunteers [1]; long term treatment): did not bring about any blushing, erythema, pain, inflammation, induration, phlebitis and thrombosis | change of heart rate from predose, Mean (SD) (healthy volunteers [2]; [4]): −5.7 (11.51) beats per minute | heart rate, Mean (SD) (healthy volunteers [2]; [4]): 61.7 (5.87) beats per minute | change of heart rate from predose, Mean (SD) (healthy volunteers [2]; [5]): −6.8 (11.98) beats per minute | heart rate, Mean (SD) (healthy volunteers [2]; [5]): 60.6 (5.50) beats per minute | change of heart rate from predose, Mean (SD) (healthy volunteers [2]; [6]): −6.5 (9.88) beats per minute | heart rate, Mean (SD) (healthy volunteers [2]; [6]): 60.8 (4.04) beats per minute | change of heart rate from predose, Mean (SD) (healthy volunteers [2]; [7]): −5.9 (9.79) beats per minute | heart rate, Mean (SD) (healthy volunteers [2]; [7]): 61.4 (5.43) beats per minute | change of heart rate from predose, Mean (SD) (healthy volunteers [2]; [8]): −5.7 (10.63) beats per minute | heart rate, Mean (SD) (healthy volunteers [2]; [8]): 61.7 (5.33) beats per minute | change of heart rate from predose, Mean (SD) (healthy volunteers [2]; [9]): −3.8 (10.00) beats per minute | heart rate, Mean (SD) (healthy volunteers [2]; [9]): 63.5 (6.11) beats per minute | change of heart rate from predose, Mean (SD) (healthy volunteers [2]; [10]): −0.3 (14.69) beats per minute | heart rate, Mean (SD) (healthy volunteers [2]; [10]): 67.0 (8.92) beats per minute | change of heart rate from predose, Mean (SD) (healthy volunteers [2]; [11]): −0.3 (11.89) beats per minute | heart rate, Mean (SD) (healthy volunteers [2]; [11]): 67.0 (8.29) beats per minute | change of heart rate from predose, Mean (SD) (healthy volunteers [2]; [12]): 2.7 (9.47) beats per minute | heart rate, Mean (SD) (healthy volunteers [2]; [12]): 70.0 (5.70) beats per minute | change of heart rate from predose, Mean (SD) (healthy volunteers [2]; [13]): 1.8 (12.70) beats per minute | heart rate, Mean (SD) (healthy volunteers [2]; [13]): 69.2 (9.64) beats per minute | change of heart rate from predose, Mean (SD) (healthy volunteers [2]; [14]): −0.5 (9.97) beats per minute | heart rate, Mean (SD) (healthy volunteers [2]; [14]): 66.8 (8.43) beats per minute | change of heart rate from predose, Mean (SD) (healthy volunteers [2]; [15]): 4.2 (10.34) beats per minute | heart rate, Mean (SD) (healthy volunteers [2]; [15]): 71.5 (4.96) beats per minute | change of heart rate from predose, Mean (SD) (healthy volunteers [2]; [16]): 5.3 (9.97) beats per minute | heart rate, Mean (SD) (healthy volunteers [2]; [16]): 72.6 (5.26) beats per minute | change of heart rate from predose, Mean (SD) (healthy volunteers [2]; HD Predose (end of 2 h MD)): −11.3 (9.41) beats per minute | heart rate, Mean (SD) (healthy volunteers [2]; HD Predose (end of 2 h MD)): 56.1 (7.38) beats per minute | change of heart rate from predose, Mean (SD) (healthy volunteers [2]; [17]): −9.6 (8.69) beats per minute | heart rate, Mean (SD) (healthy volunteers [2]; [17]): 57.8 (5.43) beats per minute | change of heart rate from predose, Mean (SD) (healthy volunteers [2]; [18]): −9.9 (9.92) beats per minute | heart rate, Mean (SD) (healthy volunteers [2]; [18]): 57.4 (6.40) beats per minute | change of heart rate from predose, Mean (SD) (healthy volunteers [2]; [19]): −12.6 (9.52) beats per minute | heart rate, Mean (SD) (healthy volunteers [2]; [19]): 54.8 (5.45) beats per minute | change of heart rate from predose, Mean (SD) (healthy volunteers [2]; [20]): −9.7 (11.01) beats per minute | heart rate, Mean (SD) (healthy volunteers [2]; [20]): 57.7 (7.38) beats per minute | change of heart rate from predose, Mean (SD) (healthy volunteers [2]; [21]): −10.7 (10.76) beats per minute | heart rate, Mean (SD) (healthy volunteers [2]; [21]): 56.7 (6.62) beats per minute | change of heart rate from predose, Mean (SD) (healthy volunteers [2]; [22]): −9.4 (12.21) beats per minute | heart rate, Mean (SD) (healthy volunteers [2]; [22]): 57.9 (8.13) beats per minute | change of heart rate from predose, Mean (SD) (healthy volunteers [2]; [23]): −11.3 (10.71) beats per minute | heart rate, Mean (SD) (healthy volunteers [2]; [23]): 56.0 (6.80) beats per minute | change of heart rate from predose, Mean (SD) (healthy volunteers [2]; [24]): −11.4 (9.74) beats per minute | heart rate, Mean (SD) (healthy volunteers [2]; [24]): 55.9 (6.35) beats per minute | change of heart rate from predose, Mean (SD) (healthy volunteers [2]; [25]): −10.5 (10.30) beats per minute | heart rate, Mean (SD) (healthy volunteers [2]; [25]): 56.8 (7.23) beats per minute | change of heart rate from predose, Mean (SD) (healthy volunteers [2]; [26]): −5.4 (13.14) beats per minute | heart rate, Mean (SD) (healthy volunteers [2]; [26]): 61.9 (8.93) beats per minute | change of heart rate from predose, Mean (SD) (healthy volunteers [2]; [27]): −4.8 (11.24) beats per minute | heart rate, Mean (SD) (healthy volunteers [2]; [27]): 62.5 (5.95) beats per minute | change of heart rate from predose, Mean (SD) (healthy volunteers [2]; [28]): −3.0 (9.59) beats per minute | heart rate, Mean (SD) (healthy volunteers [2]; [28]): 64.3 (5.25) beats per minute | change of heart rate from predose, Mean (SD) (healthy volunteers [2]; [29]): −6.9 (11.24) beats per minute | heart rate, Mean (SD) (healthy volunteers [2]; [29]): 60.4 (5.25) beats per minute | change of heart rate from predose, Mean (SD) (healthy volunteers [2]; [30]): −9.8 (10.39) beats per minute | heart rate, Mean (SD) (healthy volunteers [2]; [30]): 57.5 (5.96) beats per minute | change of heart rate from predose, Mean (SD) (healthy volunteers [2]; [31]): −10.8 (10.17) beats per minute | heart rate, Mean (SD) (healthy volunteers [2]; [31]): 56.5 (6.08) beats per minute | change of heart rate from predose, Mean (SD) (healthy volunteers [2]; [32]): −13.8 (10.01) beats per minute | heart rate, Mean (SD) (healthy volunteers [2]; [32]): 53.6 (4.89) beats per minute | change of heart rate from predose, Mean (SD) (healthy volunteers [2]; [33]): −5.7 (11.51) beats per minute | heart rate, Mean (SD) (healthy volunteers [2]; [33]): 61.7 (5.87) beats per minute | change of heart rate from predose, Mean (SD) (healthy volunteers [2]; LD infusion (landiolol 10, esmolol 50 μg/kg/min), 2 min): −1.8 (7.77) beats per minute
